From US7109216B2 (priority 2001, dated 2006)
Read-outs that look alike come from different tables or passages of the source.

Assays:
[1] = target: T1, human cannabinoid CB1 receptor (Homo sapiens, UniProt P21554); assay: Cannabinoid CB1 antagonistic activity, forskolin-induced cAMP accumulation in CHO cells; assay type: cell-based; design: expressed in transfected cells; host or cells: CHO cells
Protocol: The cannabinoid CB1 antagonistic activity of compounds of the invention was determined by functional studies using CHO cells in which human cannabinoid CB1 receptors were stably expressed. Adenylyl cyclase was stimulated using forskolin and measured by quantifying the amount of accumulated cyclic AMP. Concomitant activation of CB1 receptors by CB1 receptor agonists (e.g. CP-55,940 or (R)-WIN-55,212–2) can attenuate the forskolin-induced accumulation of cAMP in a concentration-dependent manner. This CB1 receptor-mediated response can be antagonized by CB1 receptor antagonists such as the compounds of the invention.

[2] = target: T1, human cannabinoid CB1 receptor; assay: biochemical; assay type: binding; design: expressed in transfected cells; host or cells: Chinese hamster ovary (CHO) cells, membrane preparation; details: [3H]CP-55,940 radioligand, CHO cell membranes stably transfected with human CB1
Protocol: After incubation of a freshly prepared cell membrane preparation with the [^3H]-ligand, with or without addition of compounds of the invention, separation of bound and free ligand was performed by filtration over glassfiber filters. Radioactivity on the filter was measured by liquid scintillation counting.

CB1 receptor = CB1 receptor (Homo sapiens, UniProt P21554); details: Meschler et al. 2000; cited from earlier work
[3] = antagonism of CB1 agonist (e.g. CP-55,940 or (R)-WIN-55,212-2) effect on forskolin-induced cAMP accumulation, CHO cells expressing human CB1
[4] = antagonism of CB1 agonist (e.g. CP-55,940 or (R)-WIN-55,212-2) effect on forskolin-induced cAMP accumulation, CHO cells expressing human CB1, read-out: hCB1 pA2 (converted)

T1 sequence (P21554 whole entry): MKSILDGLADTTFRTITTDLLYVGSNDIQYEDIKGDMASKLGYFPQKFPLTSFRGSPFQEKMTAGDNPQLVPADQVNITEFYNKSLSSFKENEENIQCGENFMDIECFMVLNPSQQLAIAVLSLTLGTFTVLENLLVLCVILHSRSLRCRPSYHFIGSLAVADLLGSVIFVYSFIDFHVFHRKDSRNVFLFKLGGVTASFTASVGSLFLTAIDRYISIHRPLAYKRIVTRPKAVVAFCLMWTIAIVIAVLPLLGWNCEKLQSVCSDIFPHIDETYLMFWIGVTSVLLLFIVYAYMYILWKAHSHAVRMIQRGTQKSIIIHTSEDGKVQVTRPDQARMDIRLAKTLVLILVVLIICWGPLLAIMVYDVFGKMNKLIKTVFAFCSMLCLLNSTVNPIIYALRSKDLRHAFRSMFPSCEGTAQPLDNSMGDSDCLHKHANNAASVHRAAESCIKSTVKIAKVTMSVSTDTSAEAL
CB1 receptor, sequence (P21554 whole entry): as above

Row | Compound | melting point | hCB1 pA2 [1, 3] | Ki ([2]; hCB1 pKi) | Kb [1] | Ki ([2]; read-out: hCB1 pKi (converted)) | Kb [1, 4] | CB1 receptor subtype selectivity compared with SR141716A (CB1 receptor) | potency compared with SR141716A (CB1 receptor)
1 | Cc1c(C(=O)NN2CC3CCCC3C2)nc(-c2ccc(Cl)cc2Cl)n1-c1ccc(Cl)cc1 (centres unmarked) [Example 81, 1-(4-Chlorophenyl)-2-(2,4-dichlorophenyl)-N-(hexahydrocyclopenta-[c]pyrrol-2(1H)-yl)-5-methyl-1H-imidazole-4-carboxamide] | 143 to 146 °C | 9.8 | 31.6 nM | – | – | – | – | –
2 | O=C(NN1CCCCCC1)c1cn(-c2ccc(Br)cc2)c(-c2ccc(Cl)cc2Cl)n1 [Example 25, N-(Azepan-1-yl)-1-(4-bromophenyl)-2-(2,4-dichlorophenyl)-1H-imidazole-4-carboxamide] | 201 to 204 °C | – | – | 10 nM | 126 nM | – | – | –
3 | COc1cc(Cl)ccc1-c1nc(C(=O)NC2CCCCC2)cn1-c1ccc(Cl)cc1 [Example 29, 1-(4-Chlorophenyl)-N-cyclohexyl-2-(2-methoxy-4-chlorophenyl)-1H-imidazole-4-carboxamide] | 177 to 179 °C | – | – | 100 nM | 398 nM | – | – | –
4 | COc1ccc(-n2c(-c3ccc(Cl)cc3Cl)nc(C(=O)NN3CCCCC3)c2C)cc1 [Example 63, 2-(2,4-Dichlorophenyl)-5-methyl-1-(4-methoxyphenyl)-N-(piperidin-1-yl)-1H-imidazole-4-carboxamide] | > 90 °C (dec.) | – | 79.4 nM | – | – | 1 nM | – | –
5 | O=C(NC1CCCCC1)c1cn(-c2ccc(C(F)(F)F)cc2)c(-c2ccc(Cl)cc2Cl)n1 [Example 48, N-Cyclohexyl-2-(2,4-dichlorophenyl)-1-(4-(trifluoromethyl)phenyl)-1H-imidazole-4-carboxamide] | 199 to 200 °C | – | – | 0.251 nM | 316 nM | – | – | –
6 | Cc1c(C(=O)NN2CCCCCC2)nc(-c2ccc(Cl)cc2Cl)n1-c1ccc(Cl)cc1 [Example 92, N-(Azepan-1-yl)-1-(4-chlorophenyl)-2-(2,4-dichlorophenyl)-5-methyl-1H-imidazole-4-carboxamide] | 147 to 149 °C | – | 63.1 nM | – | – | 1.58 nM | – | –
7 | Cc1c(C(=O)NCc2ccc(C(F)(F)F)cc2)nc(-c2ccc(Cl)cc2Cl)n1-c1ccc(Cl)cc1 [Example 106, 1-(4-Chlorophenyl)-2-(2,4-dichlorophenyl)-5-methyl-N-(4-(trifluoromethyl)benzyl)-1H-imidazole-4-carboxamide] | 232 °C | 8.9 | 100 nM | – | – | – | – | –
8 | O=C(NN1CCCCC1)c1cn(-c2ccc(C(F)(F)F)cc2)c(-c2ccc(Cl)cc2Cl)n1 [Example 46, 2-(2,4-dichlorophenyl)-N-(piperidin-1-yl)-1-(4-(trifluoromethyl)phenyl)-1H-imidazole-4-carboxamide] | > 200 °C (dec.) | – | 50.1 nM | – | – | 6.31 nM | – | –
9 | Cc1c(C(=O)NC2CCCC2)nc(-c2ccc(Cl)cc2Cl)n1-c1ccc(Cl)cc1 [Example 107, 1-(4-Chlorophenyl)-N-cyclopentyl-2-(2,4-dichlorophenyl)-5-methyl-1H-imidazole-4-carboxamide] | 172 °C | 8.9 | 158 nM | – | – | – | – | –
10 | CS(=O)(=O)c1c(C(=O)NN2CCCCC2)nc(-c2ccc(Cl)cc2Cl)n1-c1ccc(Cl)cc1 [Example 118, 1-(4-Chlorophenyl)-2-(2,4-dichlorophenyl)-5-methylsulfonyl-N-(piperidin-1-yl)-1H-imidazole-4-carboxamide] | 181 to 185 °C (dec.) | 8.5 | 15.8 nM | – | – | – | – | –
11 | CCc1c(C(=O)NC2CCCCC2)nc(-c2ccc(Cl)cc2Cl)n1-c1ccc(Br)cc1 [Example 20, 1-(4-Bromophenyl)-N-cyclohexyl-2-(2,4-dichlorophenyl)-5-ethyl-1H-imidazole-4-carboxamide] | > 135 °C | – | 100 nM | – | – | < 1 nM | – | –
12 | COc1ccc(-c2c(C#N)c(C(=O)Nc3ccccc3)nn2-c2ccccc2Cl)cc1 [CP-272871] | – | – | – | – | – | – | less CB1 receptor subtype-selective | less potent
13 | Cc1c(C(=O)NN2CCOCC2)nc(-c2ccc(Cl)cc2Cl)n1-c1ccc(Cl)cc1 [Example 94, 1-(4-Chlorophenyl)-2-(2,4-dichlorophenyl)-5-methyl-N-(morpholin-4-yl)-1H-imidazole-4-carboxamide] | 225 °C (dec.) | 7.5 | 100 nM | – | – | – | – | –
14 | Cc1c(C(=O)NC2CC3CCC2C3)nc(-c2ccc(Cl)cc2Cl)n1-c1ccc(Cl)cc1 (stereo not drawn) [Example 84, N-(Exo-bicyclo[2.2.1]hept-2-yl)-1-(4-chlorophenyl)-2-(2,4-dichlorophenyl)-5-methyl-1H-imidazole-4-carboxamide] | 194 to 195 °C | – | 15.8 nM | – | – | 1.26 nM | – | –
15 | O=C(NC1CCCCC1)c1cn(-c2ccc(Cl)cc2)c(-c2ccc(Cl)cc2C(F)(F)F)n1 [Example 38, 1-(4-Chlorophenyl)-N-cyclohexyl-2-(2-trifluoromethyl-4-chlorophenyl)-1H-imidazole-4-carboxamide] | 172 °C | – | – | 20 nM | 200 nM | – | – | –
16 | O=C(NN1CCCCC1)c1nc(-c2ccc(Cl)cc2Cl)n(-c2ccc(Cl)cc2)c1I [Example 111, 1-(4-Chlorophenyl)-2-(2,4-dichlorophenyl)-5-iodo-N-(piperidin-1-yl)-1H-imidazole-4-carboxamide] | 196 to 201 °C | – | 6.31 nM | – | – | 2.51 nM | – | –
17 | CCc1c(C(=O)NN2CCCCC2)nc(-c2ccc(Cl)cc2Cl)n1-c1ccc(Br)cc1 [Example 19, 1-(4-Bromophenyl)-2-(2,4-dichlorophenyl)-5-ethyl-N-(piperidin-1-yl)-1H-imidazole-4-carboxamide] | > 140 °C | – | 31.6 nM | – | – | 1.26 nM | – | –
